{"source": "ChEMBL document CHEMBL5316328", "about": "“Discovery of AXL Degraders with Improved Potencies in Triple-Negative Breast Cancer (TNBC) Cells” (J Med Chem, 2023)", "key": {"[1]": {"molecular_target": "T1, Protein cereblon/Tyrosine-protein kinase receptor UFO (Homo sapiens, UniProt P30530+Q96SW2)", "T1 sequence (P30530 26-894 limits assumed)": "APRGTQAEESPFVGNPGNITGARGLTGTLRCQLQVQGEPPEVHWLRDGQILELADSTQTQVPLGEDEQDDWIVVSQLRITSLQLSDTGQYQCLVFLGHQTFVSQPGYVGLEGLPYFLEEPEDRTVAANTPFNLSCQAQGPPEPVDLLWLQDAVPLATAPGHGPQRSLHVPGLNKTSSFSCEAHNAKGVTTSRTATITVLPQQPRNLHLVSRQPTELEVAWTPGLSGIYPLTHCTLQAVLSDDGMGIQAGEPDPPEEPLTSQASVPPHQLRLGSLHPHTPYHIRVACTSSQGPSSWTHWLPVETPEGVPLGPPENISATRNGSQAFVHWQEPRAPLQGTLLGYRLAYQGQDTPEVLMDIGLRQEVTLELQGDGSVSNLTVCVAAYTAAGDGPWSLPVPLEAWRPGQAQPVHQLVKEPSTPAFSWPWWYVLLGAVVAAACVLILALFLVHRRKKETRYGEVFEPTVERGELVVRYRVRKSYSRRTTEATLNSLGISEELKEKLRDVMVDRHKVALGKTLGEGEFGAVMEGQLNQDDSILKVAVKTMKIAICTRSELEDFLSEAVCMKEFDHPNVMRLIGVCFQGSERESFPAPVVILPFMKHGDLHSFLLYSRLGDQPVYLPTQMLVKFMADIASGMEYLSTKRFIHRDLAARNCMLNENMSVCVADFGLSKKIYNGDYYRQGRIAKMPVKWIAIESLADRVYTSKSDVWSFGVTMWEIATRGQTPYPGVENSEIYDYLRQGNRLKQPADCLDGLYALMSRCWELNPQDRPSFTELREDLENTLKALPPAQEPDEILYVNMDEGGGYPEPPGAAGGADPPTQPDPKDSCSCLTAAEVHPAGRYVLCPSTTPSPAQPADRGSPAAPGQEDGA", "T1 sequence (Q96SW2 whole entry partner)": "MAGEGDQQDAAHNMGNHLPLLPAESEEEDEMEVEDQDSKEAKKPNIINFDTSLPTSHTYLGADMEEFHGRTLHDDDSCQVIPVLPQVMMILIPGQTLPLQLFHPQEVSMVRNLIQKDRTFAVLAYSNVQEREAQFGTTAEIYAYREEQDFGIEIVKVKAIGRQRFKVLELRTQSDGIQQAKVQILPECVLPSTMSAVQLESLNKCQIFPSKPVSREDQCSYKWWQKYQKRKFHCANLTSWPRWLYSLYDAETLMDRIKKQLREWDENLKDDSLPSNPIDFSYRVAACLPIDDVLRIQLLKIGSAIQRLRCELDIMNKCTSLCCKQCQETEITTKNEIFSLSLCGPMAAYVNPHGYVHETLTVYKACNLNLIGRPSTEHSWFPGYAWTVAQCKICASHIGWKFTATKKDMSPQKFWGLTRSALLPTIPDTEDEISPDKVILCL", "test": "PROTAC activity at CRBN/AXL in human MDA-MB-231 cells assessed as induction of AXL degradation by measuring ubiquitination of AXL at 40 nM preincubated with MG-132 for 2 hrs followed by compound treatment and measured after 24 hrs by coimmunoprecipitation analysis", "assay_type": "cell-based"}, "MDA-MB-231 [2]": {"tested_on": "MDA-MB-231", "test": "Inhibition of migration in human MDA-MB-231 cells incubated for 18 hrs by transwell assay", "assay_type": "functional, cell-based", "conditions": "dose 3.7-100 nM"}, "MDA-MB-231 [3]": {"tested_on": "MDA-MB-231", "test": "Antitumor activity against human MDA-MB-231 cells xenografted in Balb/c nude mouse assessed as tumor growth inhibition at 10 mg/kg, ip administered for 22 days and measured 24 hrs post last dose relative to control", "assay_type": "functional", "conditions": "MDA-MB-231, 552 h, time 23 day, read-out: TGI"}, "[4]": {"test": "Antitumor activity against patient-derived breast cancer organoid assessed as reduction in cell viability incubated for 120 hrs by CellTiter-Glo 3D assay", "assay_type": "functional, tissue-based", "conditions": "Homo sapiens"}, "[5]": {"molecular_target": "Casein kinase I isoform alpha (Homo sapiens) (UniProt P48729)", "sequence (P48729 2-337 limits assumed)": "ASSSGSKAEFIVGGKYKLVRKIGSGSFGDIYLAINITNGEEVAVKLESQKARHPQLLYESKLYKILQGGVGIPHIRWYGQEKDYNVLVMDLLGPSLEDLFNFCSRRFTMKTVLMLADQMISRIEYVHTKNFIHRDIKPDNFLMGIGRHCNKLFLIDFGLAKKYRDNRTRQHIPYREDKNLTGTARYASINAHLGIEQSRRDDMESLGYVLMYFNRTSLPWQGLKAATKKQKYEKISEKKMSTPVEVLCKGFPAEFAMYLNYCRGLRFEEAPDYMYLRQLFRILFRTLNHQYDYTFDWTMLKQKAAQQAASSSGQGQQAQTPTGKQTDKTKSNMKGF", "test": "Induction of CK1alpha degradation in human MDA-MB-231 cells at 10 uM incubated for 24 hrs by Western blot analysis", "assay_type": "cell-based"}, "MDA-MB-231 [6]": {"tested_on": "MDA-MB-231", "test": "Induction of cell cycle arrest in human MDA-MB-231 cells assessed as accumulation of cell at G2/M phase at 33.3 nM incubated for 24 hrs by PI staining based flow cytometric analysis (reference value: 24.34 to 24.44%)", "assay_type": "functional"}, "MDA-MB-231 [7]": {"tested_on": "MDA-MB-231", "test": "Induction of cell cycle arrest in human MDA-MB-231 cells assessed as S phase cells at 100 nM incubated for 24 hrs by PI staining based flow cytometric analysis (reference value: 9.64 to 10.79%)", "assay_type": "functional"}, "[8]": {"molecular_target": "Zinc finger protein Aiolos (Homo sapiens) (UniProt Q9UKT9)", "sequence (Q9UKT9 whole entry)": "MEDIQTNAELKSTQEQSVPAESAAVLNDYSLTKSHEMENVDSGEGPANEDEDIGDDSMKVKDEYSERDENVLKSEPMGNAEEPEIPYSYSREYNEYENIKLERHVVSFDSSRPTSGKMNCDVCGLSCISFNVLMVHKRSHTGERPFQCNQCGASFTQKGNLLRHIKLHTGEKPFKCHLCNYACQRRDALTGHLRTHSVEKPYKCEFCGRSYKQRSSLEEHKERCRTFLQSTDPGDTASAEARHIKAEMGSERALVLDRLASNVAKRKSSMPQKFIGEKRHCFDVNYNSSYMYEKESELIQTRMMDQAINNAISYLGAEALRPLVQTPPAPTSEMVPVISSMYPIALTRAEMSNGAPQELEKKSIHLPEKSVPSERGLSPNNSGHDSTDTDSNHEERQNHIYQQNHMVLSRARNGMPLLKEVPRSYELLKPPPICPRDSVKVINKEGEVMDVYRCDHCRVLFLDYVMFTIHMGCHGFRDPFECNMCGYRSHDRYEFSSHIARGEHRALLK", "test": "Induction of IKZF3 degradation in human MDA-MB-231 cells at 10 uM incubated for 24 hrs by Western blot analysis", "assay_type": "cell-based"}, "MDA-MB-231 [9]": {"tested_on": "MDA-MB-231", "test": "Induction of cell cycle arrest in human MDA-MB-231 cells assessed as accumulation of cell at G2/M phase at 300 nM incubated for 24 hrs by PI staining based flow cytometric analysis (reference value: 24.34 to 24.44%)", "assay_type": "functional"}, "[10]": {"molecular_target": "Eukaryotic peptide chain release factor GTP-binding subunit ERF3A (Homo sapiens) (UniProt P15170)", "sequence (P15170 whole entry)": "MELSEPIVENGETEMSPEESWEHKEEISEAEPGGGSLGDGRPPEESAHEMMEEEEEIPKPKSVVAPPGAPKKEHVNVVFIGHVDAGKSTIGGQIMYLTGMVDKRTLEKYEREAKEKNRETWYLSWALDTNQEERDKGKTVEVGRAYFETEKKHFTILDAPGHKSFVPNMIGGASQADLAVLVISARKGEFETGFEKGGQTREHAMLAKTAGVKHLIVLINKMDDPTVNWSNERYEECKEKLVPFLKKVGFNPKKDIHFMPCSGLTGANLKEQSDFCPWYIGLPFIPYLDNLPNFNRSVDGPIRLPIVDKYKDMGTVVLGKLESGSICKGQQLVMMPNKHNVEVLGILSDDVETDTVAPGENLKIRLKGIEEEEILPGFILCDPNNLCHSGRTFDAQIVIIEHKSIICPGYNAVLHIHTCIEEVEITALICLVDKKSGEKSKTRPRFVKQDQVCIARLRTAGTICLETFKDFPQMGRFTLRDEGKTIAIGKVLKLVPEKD", "test": "Induction of GSPT1 degradation in human MDA-MB-231 cells at 0.016 to 10 nM incubated for 24 hrs by Western blot analysis", "assay_type": "cell-based", "conditions": "dose 0.016-10 nM"}, "[11]": {"molecular_target": "T1, Protein cereblon/Tyrosine-protein kinase receptor UFO", "test": "PROTAC activity at CRBN/AXL in human MDA-MB-231 cells assessed as induction of AXL degradation at 40 nM incubated for 18 to 24 hrs by Western blot analysis", "assay_type": "cell-based", "conditions": "time 18-24 hrs"}, "MDA-MB-453": {"tested_on": "MDA-MB-453", "test": "Antiproliferative activity against human MDA-MB-453 cells assessed as inhibition of cell growth incubated for 72 hrs by CCK8 assay", "assay_type": "functional, cell-based", "conditions": "MDA-MB-453, 72 h"}, "Homo sapiens": {"species": "Homo sapiens", "test": "Antitumor activity against patient-derived breast cancer organoid assessed as decrease in organoid size at 5 uM incubated for 120 hrs by bright-field imaging microscopic analysis", "assay_type": "functional, tissue-based"}, "Mus musculus": {"tested_on": "Mus musculus", "test": "In vivo PROTAC activity at CRBN/AXL in human MDA-MB-231 cells xenografted Balb/c mouse assessed as degradation of AXL in tumor at 10 to 20 mg/kg, ip administered for 22 days and measured 24 hrs post last dose by Western blot analysis", "assay_type": "functional, organism-based", "conditions": "dose 10-20 mg/kg, time 23.0 day"}, "[12]": {"molecular_target": "T1, Protein cereblon/Tyrosine-protein kinase receptor UFO", "test": "PROTAC activity at CRBN/AXL in human MDA-MB-231 cells assessed as induction of AXL degradation at 40 nM by Western blot analysis", "assay_type": "cell-based", "conditions": "time <= 72.0 hrs, TDE = time-dependent effect"}, "MDA-MB-231 [13]": {"tested_on": "MDA-MB-231", "test": "Induction of cell cycle arrest in human MDA-MB-231 cells assessed as S phase cells at 33.3 nM incubated for 24 hrs by PI staining based flow cytometric analysis (reference value: 9.64 to 10.79%)", "assay_type": "functional"}, "MDA-MB-231 [14]": {"tested_on": "MDA-MB-231", "test": "Induction of apoptosis in human MDA-MB-231 cells assessed as late apoptotic cells at 33.3 nM incubated for 48 hrs by Annexin V-PE staining based flow cytometric analysis (reference value: 0.32 to 0.82%)", "assay_type": "functional"}, "[15]": {"molecular_target": "T1, Protein cereblon/Tyrosine-protein kinase receptor UFO", "test": "PROTAC activity at CRBN/AXL in human MDA-MB-231 cells assessed as induction of AXL degradation incubated upto 20 hrs in the presence of cycloheximide by Western blot analysis", "assay_type": "cell-based"}, "[16]": {"molecular_target": "T1, Protein cereblon/Tyrosine-protein kinase receptor UFO", "test": "PROTAC activity at CRBN/AXL in human MDA-MB-436 cells expressing AXL assessed as induction of AXL degradation at 1.6 to 1000 nM incubated for 24 hrs by Western blot analysis", "assay_type": "cell-based", "conditions": "dose 1.6-1000 nM"}, "MDA-MB-231 [17]": {"tested_on": "MDA-MB-231", "test": "Antiproliferative activity against human MDA-MB-231 cells expressing AXL assessed as inhibition of cell growth incubated for 72 hrs by CCK8 assay", "assay_type": "functional, cell-based", "conditions": "MDA-MB-231, 72 h"}, "[18]": {"test": "Toxicity in Balb/c nude mouse xenografted with human MDA-MB-231 cells assessed as mortality at 10 to 20 mg/kg, ip administered for 22 days and measured 24 hrs post last dose", "assay_type": "organism-based", "conditions": "in vivo, 552 h, dose 10-20 mg/kg, time 23 day"}, "[19]": {"molecular_target": "T1, Protein cereblon/Tyrosine-protein kinase receptor UFO", "test": "PROTAC activity at CRBN/AXL in human MDA-MB-231 cells expressing AXL assessed as induction of AXL degradation at 0.016 to 10 nM incubated for 24 hrs by Western blot analysis", "assay_type": "cell-based", "conditions": "dose 0.016-10 nM"}, "[20]": {"molecular_target": "ALK tyrosine kinase receptor (Homo sapiens, UniProt Q9UM73)", "sequence (Q9UM73 whole entry)": "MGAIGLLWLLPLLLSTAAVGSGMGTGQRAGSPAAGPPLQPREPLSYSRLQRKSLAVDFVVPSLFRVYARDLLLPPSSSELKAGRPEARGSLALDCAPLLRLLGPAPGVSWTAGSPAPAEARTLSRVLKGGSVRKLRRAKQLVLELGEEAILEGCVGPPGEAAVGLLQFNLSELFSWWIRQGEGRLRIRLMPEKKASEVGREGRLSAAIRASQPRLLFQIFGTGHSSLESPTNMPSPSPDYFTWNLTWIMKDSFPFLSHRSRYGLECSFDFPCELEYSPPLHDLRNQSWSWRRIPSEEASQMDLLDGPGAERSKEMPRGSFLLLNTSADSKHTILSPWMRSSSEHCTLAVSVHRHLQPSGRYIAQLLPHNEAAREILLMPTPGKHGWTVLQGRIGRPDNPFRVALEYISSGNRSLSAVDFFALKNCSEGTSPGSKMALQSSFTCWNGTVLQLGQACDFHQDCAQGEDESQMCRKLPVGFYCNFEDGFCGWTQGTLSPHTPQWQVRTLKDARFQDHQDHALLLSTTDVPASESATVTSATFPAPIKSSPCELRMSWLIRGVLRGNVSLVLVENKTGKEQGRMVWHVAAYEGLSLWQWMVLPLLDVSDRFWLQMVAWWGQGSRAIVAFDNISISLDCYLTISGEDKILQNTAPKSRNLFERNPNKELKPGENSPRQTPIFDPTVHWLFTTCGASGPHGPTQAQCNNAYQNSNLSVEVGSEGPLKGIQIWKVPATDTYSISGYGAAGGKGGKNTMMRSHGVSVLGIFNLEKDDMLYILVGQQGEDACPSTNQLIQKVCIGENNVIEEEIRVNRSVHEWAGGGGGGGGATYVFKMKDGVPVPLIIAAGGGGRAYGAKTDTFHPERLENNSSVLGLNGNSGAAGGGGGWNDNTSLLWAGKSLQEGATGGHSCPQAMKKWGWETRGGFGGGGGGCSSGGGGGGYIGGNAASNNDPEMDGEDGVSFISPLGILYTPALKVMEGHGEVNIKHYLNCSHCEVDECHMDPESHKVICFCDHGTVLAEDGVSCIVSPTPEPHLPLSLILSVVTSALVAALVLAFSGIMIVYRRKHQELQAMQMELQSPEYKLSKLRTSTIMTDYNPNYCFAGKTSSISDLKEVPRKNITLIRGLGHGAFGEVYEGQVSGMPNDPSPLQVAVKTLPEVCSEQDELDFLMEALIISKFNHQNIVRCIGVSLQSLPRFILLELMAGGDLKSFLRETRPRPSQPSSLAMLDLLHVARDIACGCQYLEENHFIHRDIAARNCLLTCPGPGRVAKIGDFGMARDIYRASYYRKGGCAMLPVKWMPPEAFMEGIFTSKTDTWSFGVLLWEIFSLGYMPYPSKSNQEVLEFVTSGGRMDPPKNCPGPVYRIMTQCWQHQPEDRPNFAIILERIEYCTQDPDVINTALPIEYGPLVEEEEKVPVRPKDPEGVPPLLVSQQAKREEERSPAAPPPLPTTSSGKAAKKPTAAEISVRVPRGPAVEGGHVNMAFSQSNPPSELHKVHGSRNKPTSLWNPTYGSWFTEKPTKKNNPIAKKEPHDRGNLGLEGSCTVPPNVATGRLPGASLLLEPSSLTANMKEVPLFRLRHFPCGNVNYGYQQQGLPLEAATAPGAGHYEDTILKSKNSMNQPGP", "test": "Inhibition of ALK (unknown origin)"}, "[21]": {"molecular_target": "T1, Protein cereblon/Tyrosine-protein kinase receptor UFO", "test": "PROTAC activity at CRBN/AXL in human MDA-MB-231 cells assessed as induction of AXL degradation at 10 nM preincubated with more than 5 uM of N-(4-((6,7-dimethoxyquinazolin-4-yl)oxy)-3-fluorophenyl)-6-ethyl-1,2-dimethyl-4-oxo-1,4-dihydroquinoline-3-carboxamide for 6 hrs followed by compound treatment and measured after 24 hrs by Western blot analysis", "assay_type": "cell-based"}, "MDA-MB-231 [22]": {"tested_on": "MDA-MB-231", "test": "Induction of apoptosis in human MDA-MB-231 cells assessed as upregulation of cleaved PARP expression by Western blot analysis", "assay_type": "functional, cell-based", "conditions": "dose 11.1-300 nM"}, "MDA-MB-231 [23]": {"tested_on": "MDA-MB-231", "test": "Induction of apoptosis in human MDA-MB-231 cells assessed as necrotic cells at 300 nM incubated for 48 hrs by Annexin V-PE staining based flow cytometric analysis (reference value: 2.64 to 3.23%)", "assay_type": "functional"}, "MDA-MB-231 [24]": {"tested_on": "MDA-MB-231", "test": "Induction of apoptosis in human MDA-MB-231 cells assessed as early apoptotic cells at 100 nM incubated for 48 hrs by Annexin V-PE staining based flow cytometric analysis (reference value: 3.95 to 3.74%)", "assay_type": "functional"}}, "note": "Activity calls are given as the source filed them. No cut-off for these calls is given here."}
{"smiles": "CCc1ccc2c(c1)c(=O)c(C(=O)Nc1ccc(Oc3ncnc4cc(OCCCCCC(=O)Nc5ccc6c(c5)CN(C5CCC(=O)NC5=O)C6=O)c(OC)cc34)c(F)c1)c(C)n2C", "note": "(configuration not stated)", "values": [{"measurement": "Activity", "setting": "[1]", "value": "inactive"}, {"measurement": "inhibition", "setting": "MDA-MB-231 [2]", "value": "Dose-Dependent Effect"}, {"measurement": "inhibition in vivo at 10 mg/kg", "setting": "MDA-MB-231 [3]", "value": 40.9, "unit": "%"}, {"measurement": "IC50", "setting": "[4]", "value": 0.02, "unit": "µM"}, {"measurement": "Activity", "setting": "[5]", "value": "inactive"}, {"measurement": "Activity", "setting": "MDA-MB-231 [6]", "value": 22.85, "unit": "%"}, {"measurement": "Activity", "setting": "MDA-MB-231 [7]", "value": 15.78, "unit": "%"}, {"measurement": "Activity", "setting": "[8]", "value": "inactive"}, {"measurement": "Activity", "setting": "MDA-MB-231 [9]", "value": 29.55, "unit": "%"}, {"measurement": "Activity", "setting": "[10]", "value": "Active"}, {"measurement": "Activity", "setting": "[11]", "value": "Active"}, {"measurement": "IC50", "setting": "MDA-MB-453", "value": "> 5", "unit": "µM"}, {"measurement": "Activity", "setting": "Homo sapiens", "value": "Active"}, {"measurement": "Activity", "setting": "Mus musculus", "value": "Active"}, {"measurement": "Activity", "setting": "[12]", "value": "Tde"}, {"measurement": "Activity", "setting": "MDA-MB-231 [13]", "value": 14.52, "unit": "%"}, {"measurement": "Activity", "setting": "MDA-MB-231 [14]", "value": 0.56, "unit": "%"}, {"measurement": "Activity", "setting": "[15]", "value": "Active"}, {"measurement": "Activity", "setting": "[16]", "value": "Active"}, {"measurement": "IC50", "setting": "MDA-MB-231 [17]", "value": 0.01, "unit": "µM"}, {"measurement": "Activity", "setting": "[18]", "value": "Non-Toxic"}, {"measurement": "Activity", "setting": "[19]", "value": "Active"}, {"measurement": "IC50", "setting": "[20]", "value": 0.00494, "unit": "µM"}, {"measurement": "Activity", "setting": "[21]", "value": "inactive"}, {"measurement": "Activity", "setting": "MDA-MB-231 [22]", "value": "Dose-Dependent Effect"}, {"measurement": "Activity", "setting": "MDA-MB-231 [23]", "value": 4.59, "unit": "%"}, {"measurement": "Activity", "setting": "MDA-MB-231 [24]", "value": 14.51, "unit": "%"}]}
